Active and inactive are the calls of the source. The calls are words filed in the database; no cut-off is given here.
Legend:
[1] = system: KCL-22; assay: Inhibition of cell expansion in human KCL22 cells assessed as combination index at 3 uM incubated for 48 hrs in presence of 10 nM nilotinib by trypan blue dye exclusion counting method; format: functional
[2] = system: KCL-22; assay: Up-regulation of TRIM45 gene expression in human KCL22 cells at 3 uM incubated for 24 hrs by RT-qPCR analysis relative to control; format: functional, cell-based
[3] = system: KCL-22; assay: Induction of cell cycle arrest in human KCL22 cells assessed as accumulation at S phase at 3 uM incubated for 72 hrs by propidium iodide staining based flow cytometry analysis (reference value: 23.7%); format: functional
[4] = species: Homo sapiens; assay: Binding affinity to E2F1 consensus sequence DNA in human KCL22 cells assessed as reduction in MCM2 gene expression at 3 uM incubated for 24 hrs by RT-qPCR analysis relative to control; format: cell-based
[5] = species: Homo sapiens; assay: Binding affinity to E2F1 consensus sequence DNA in human KCL22 cells assessed as reduction in GNA13 gene expression at 3 uM incubated for 24 hrs by RT-qPCR analysis relative to control; format: cell-based
[6] = species: Homo sapiens; assay: Binding affinity to E2F1 consensus sequence DNA in human KCL22 cells assessed as reduction in PET112L gene expression at 3 uM incubated for 24 hrs by RT-qPCR analysis relative to control; format: cell-based
[7] = system: KCL-22; assay: Inhibition of cell expansion in human KCL22 cells at 0.3 to 3 uM incubated for 48 hrs by trypan blue dye exclusion counting method; format: functional, cell-based
[8] = system: KCL-22; assay: Induction of cell cycle arrest in human KCL22 cells assessed as accumulation at G0-G1 phase at 3 uM incubated for 72 hrs by propidium iodide staining based flow cytometry analysis (reference value: 57.4%); format: functional
[9] = system: KCL-22; assay: Up-regulation of RARS2 gene expression in human KCL22 cells at 3 uM incubated for 24 hrs by RT-qPCR analysis relative to control; format: functional, cell-based
[10] = system: KCL-22; assay: Inhibition of cell expansion in human KCL22 cells at 3 uM incubated for 48 hrs in presence of 10 nM nilotinib by trypan blue dye exclusion counting method; format: functional, cell-based
[11] = system: KCL-22; assay: Induction of cell cycle arrest in human KCL22 cells assessed as accumulation at subG0 phase at 3 uM incubated for 72 hrs by propidium iodide staining based flow cytometry analysis (reference value: 3.91%); format: functional
[12] = species: Homo sapiens; assay: Binding affinity to E2F1 consensus sequence DNA in human KCL22 cells assessed as reduction in PSMB8 gene expression at 3 uM incubated for 24 hrs by RT-qPCR analysis relative to control; format: cell-based
[13] = species: Homo sapiens; assay: Binding affinity to E2F1 consensus sequence DNA in human KCL22 cells assessed as reduction in ZNF354B gene expression at 3 uM incubated for 24 hrs by RT-qPCR analysis relative to control; format: cell-based
[14] = system: KCL-22; assay: Induction of cell cycle arrest in human KCL22 cells assessed as accumulation at G2-M phase at 3 uM incubated for 72 hrs by propidium iodide staining based flow cytometry analysis (reference value: 14%); format: functional
[15] = species: Homo sapiens; assay: Binding affinity to E2F1 consensus sequence DNA in human KCL22 cells assessed as reduction in MRRF gene expression at 3 uM incubated for 24 hrs by RT-qPCR analysis relative to control; format: cell-based
[16] = species: Homo sapiens; assay: Binding affinity to E2F1 consensus sequence DNA in human KCL22 cells assessed as reduction in SF3B4 gene expression at 3 uM incubated for 24 hrs by RT-qPCR analysis relative to control; format: cell-based
[17] = system: KCL-22; assay: Inhibition of cell expansion in human KCL22 cells at 10 nM incubated for 48 hrs by trypan blue dye exclusion counting method; format: functional, cell-based

SMILES	CI [1]	Activity [2]	Activity [3]	Activity [4]	Activity [5]	Activity [6]	inhibition [7]	Activity [8]	Activity [9]	inhibition [10]	Activity [11]	Activity [12]	Activity [13]	Activity [14]	Activity [15]	Activity [16]	inhibition [17]
CN(C)CCCNC(=O)c1cc(NC(=O)c2cc(NC(=O)c3cc(NC(=O)c4cc(NC(=O)[C@H](N)CCNC(=O)c5nc(NC(=O)c6nc(NC(=O)c7cc(NC(=O)c8nccn8C)cn7C)cn6C)cn5C)cn4C)cn3C)cn2C)cn1C	>1	Active	26.4%	Active	Active	Active	Active	58.1%	Active	Active	3.84%	Active	Active	10.8%	Active	Active	–
Cc1cn(-c2cc(NC(=O)c3ccc(C)c(Nc4nccc(-c5cccnc5)n4)c3)cc(C(F)(F)F)c2)cn1	–	–	–	–	–	–	–	–	–	–	–	–	–	–	–	–	Active
